pIC50: −log10 of the molar value.
Experiments:
[1] = system: MCF7, hormone-independent human breast cancer cells; experiment: Proliferation assay, MCF7; format: cell-based; conditions: MCF7, 96 h, 4 days incubation, crystal violet
How it was run: (§1)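 Cells seeded ~5000/well, treated after 24 h with 0.01-30 μM compound (0.5% DMSO) for 4 days. Glutaraldehyde-fixed cells stained with crystal violet, absorbance at 595 nm; growth expressed as percent, normalized to zero-point plate (0%) and untreated cells (100%).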

CDK1/CycB = molecular target: T1, CDK1/CycB (Homo sapiens, UniProt P06493); experiment: CDK1/CycB Kinase Assay; format: biochemical; conditions: histone IIIS substrate, 33P-ATP, 15 minutes at 22° C.
T1 construct: GST; purchased ProQinase GmbH, Freiburg; host or cells: baculovirus-infected insect cells (Sf9)
T1 sequence (P06493 whole entry): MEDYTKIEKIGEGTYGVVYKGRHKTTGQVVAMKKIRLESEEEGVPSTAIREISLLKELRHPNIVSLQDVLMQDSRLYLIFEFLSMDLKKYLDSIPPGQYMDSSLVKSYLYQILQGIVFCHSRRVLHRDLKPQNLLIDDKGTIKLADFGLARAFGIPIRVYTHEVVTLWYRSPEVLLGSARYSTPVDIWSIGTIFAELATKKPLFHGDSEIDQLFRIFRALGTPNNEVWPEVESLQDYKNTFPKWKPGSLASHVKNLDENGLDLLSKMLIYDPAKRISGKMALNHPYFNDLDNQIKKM
T1 sequence (P14635 whole entry partner): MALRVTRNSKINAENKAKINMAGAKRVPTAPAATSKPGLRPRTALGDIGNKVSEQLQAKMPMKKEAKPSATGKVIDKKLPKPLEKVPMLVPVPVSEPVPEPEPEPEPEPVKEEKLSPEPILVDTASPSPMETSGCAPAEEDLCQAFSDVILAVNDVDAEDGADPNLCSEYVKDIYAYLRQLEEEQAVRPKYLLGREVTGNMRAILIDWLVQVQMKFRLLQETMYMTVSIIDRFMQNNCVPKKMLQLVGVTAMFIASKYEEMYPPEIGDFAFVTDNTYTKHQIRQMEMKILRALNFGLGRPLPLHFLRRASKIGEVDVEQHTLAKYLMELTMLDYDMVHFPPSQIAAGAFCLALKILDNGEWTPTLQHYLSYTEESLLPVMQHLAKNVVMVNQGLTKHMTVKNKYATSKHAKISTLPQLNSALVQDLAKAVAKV

[2] = system: NCI-H460, human non-small-cell lung cancer cells; experiment: Proliferation assay, H460; format: cell-based; conditions: NCI-H460, 96 h, 4 days incubation, crystal violet
How it was run: as §1

MaTu-ADR = experiment: Proliferation assay, MaTu-ADR; format: cell-based; conditions: Homo sapiens, 96 h, MaTu-ADR cells, 4 days incubation, crystal violet
How it was run: as §1

[3] = molecular target: T2, VEGF receptor tyrosine kinase-2 (Homo sapiens, UniProt P35968); experiment: VEGF Receptor-2 Kinase Assay; format: biochemical; conditions: poly-(Glu4Tyr) substrate, 33P-ATP, 10 minutes at 22° C.; read-out: VEGF-R2 IC50
T2 construct: GST; made in house; host or cells: baculovirus-infected insect cells (Sf9)
T2 sequence (P35968 20-1356): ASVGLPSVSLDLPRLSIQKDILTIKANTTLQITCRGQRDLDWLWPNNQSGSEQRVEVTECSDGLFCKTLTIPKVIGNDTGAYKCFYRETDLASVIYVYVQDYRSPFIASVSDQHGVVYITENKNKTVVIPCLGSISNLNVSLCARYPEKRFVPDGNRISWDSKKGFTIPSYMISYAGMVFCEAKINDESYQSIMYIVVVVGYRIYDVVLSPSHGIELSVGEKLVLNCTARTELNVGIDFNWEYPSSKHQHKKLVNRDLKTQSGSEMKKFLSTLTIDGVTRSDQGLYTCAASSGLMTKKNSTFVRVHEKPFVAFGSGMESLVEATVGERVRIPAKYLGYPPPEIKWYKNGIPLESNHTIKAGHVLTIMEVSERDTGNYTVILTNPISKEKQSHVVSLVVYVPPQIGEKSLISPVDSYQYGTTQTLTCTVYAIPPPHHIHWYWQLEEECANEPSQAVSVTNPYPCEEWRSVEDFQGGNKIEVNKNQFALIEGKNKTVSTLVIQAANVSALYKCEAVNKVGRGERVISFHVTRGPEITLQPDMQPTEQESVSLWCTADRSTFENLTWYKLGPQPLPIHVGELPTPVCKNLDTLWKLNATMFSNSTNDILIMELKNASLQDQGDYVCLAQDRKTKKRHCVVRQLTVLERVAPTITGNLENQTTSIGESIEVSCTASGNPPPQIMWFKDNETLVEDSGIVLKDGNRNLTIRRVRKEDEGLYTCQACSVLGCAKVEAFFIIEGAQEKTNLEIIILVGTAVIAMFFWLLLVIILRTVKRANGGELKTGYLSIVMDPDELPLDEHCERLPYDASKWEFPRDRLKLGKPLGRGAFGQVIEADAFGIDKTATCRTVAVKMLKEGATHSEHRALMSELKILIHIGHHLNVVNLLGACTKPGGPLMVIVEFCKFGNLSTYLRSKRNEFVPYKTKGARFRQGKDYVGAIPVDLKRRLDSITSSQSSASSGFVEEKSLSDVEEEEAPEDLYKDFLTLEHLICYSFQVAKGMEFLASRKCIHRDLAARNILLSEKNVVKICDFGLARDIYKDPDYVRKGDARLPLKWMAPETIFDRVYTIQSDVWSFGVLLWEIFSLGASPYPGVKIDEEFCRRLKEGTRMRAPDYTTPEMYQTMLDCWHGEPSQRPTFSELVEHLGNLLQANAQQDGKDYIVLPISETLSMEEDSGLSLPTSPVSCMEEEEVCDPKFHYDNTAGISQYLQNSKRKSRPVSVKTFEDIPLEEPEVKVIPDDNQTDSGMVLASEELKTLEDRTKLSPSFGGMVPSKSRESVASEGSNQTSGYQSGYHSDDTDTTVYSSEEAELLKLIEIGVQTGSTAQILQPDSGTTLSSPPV

[4] = system: DU 145, hormone-independent human prostate cancer cells; experiment: Proliferation assay, DU145; format: cell-based; conditions: DU-145, 96 h, 4 days incubation, crystal violet
How it was run: as §1

[5] = system: HCT 116, human colon cancer cells; experiment: Proliferation assay, HCT116; format: cell-based; conditions: HCT-116, 96 h, 4 days incubation, crystal violet
From the text: Cultivated human tumor cells (MCF7, hormone-independent human breast cancer cells, related to ATCC HTB22; NCI-H460, human non-small-cell lung cancer cells, ATCC HTB-177, HCT 116, human colon cancer cells, ATCC CCL-247; DU 145, hormone-independent human prostate cancer cells, ATCC HTB-81; MaTu-MDR, hormone-independent, multiple pharmaceutical agent-resistant human breast cancer cells, EPO-GmbH, Berlin) were flattened out at a density of about 5000 cells/measuring point, depending on the growth rate of the respective cells, in a 96-well multititer plate in 200 μl of the corresponding growth medium. After 24 hours, the cells of one plate (zero-point plate) were colored with crystal violet (see below), while the medium of the other plates was replaced by fresh culture medium (200 μl), to which the test substances were added in various concentrations (0 μm, as well as in the range of 0.01-30 μm; the final concentration of the solvent dimethyl sulfoxide was 0.5%). The cells were incubated for 4 days in the presence of test substances. The cell proliferation was determined by coloring the cells with crystal violet: the cells were fixed by adding 20 μl/measuring point of an 11% glutaric aldehyde solution for 15 minutes at room temperature. After three washing cycles of the fixed cells with water, the plates were dried at room temperature. The cells were colored by adding 100 μl/measuring point of a 0.1% crystal violet solution (the pH was set at 3 by adding acetic acid). After three washing cycles of the colored cells with water, the plates were dried at room temperature. The dye was dissolved by adding 100 μl/measuring point of a 10% acetic acid solution. The extinction was determined by photometry at a wavelength of 595 nm. The change of cell growth, in percent, was calculated by normalization of the measured values to the extinction values of the zero-point plate (=0%) and the extinction of the untreated (0 μm) cells (=100%).

CDK2/CycE = molecular target: T3, CDK2/CycE (Homo sapiens, UniProt P24941); experiment: CDK2/CycE Kinase Assay; format: biochemical; conditions: histone IIIS substrate, 33P-ATP, 15 minutes at 22° C.
T3 construct: GST; purchased ProQinase GmbH, Freiburg; host or cells: baculovirus-infected insect cells (Sf9)
How it was run: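 Recombinant GST-tagged CDK2/CycE from Sf9 cells (50 ng/point) was incubated with compound (0.01-100 μM) for 15 min at 22° C, pH 8.0, with 0.5 μM ATP plus ^33P-γ-ATP and histone IIIS as substrate, in 12.5% DMSO. Incorporated ^33P was counted after filter binding and washing.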

Human Carboanhydrase-2 = Human Carboanhydrase-2 (Homo sapiens, UniProt P00918); experiment: Carboanhydrase Assay; format: biochemical; conditions: 4-nitrophenyl acetate hydrolysis, 400 nm; read-out: Inhibition of Human Carboanhydrase-2 IC50
Description: 2 μl of the test compounds, dissolved in DMSO (100× the final concentration), in a concentration range of 0.03-10 μm (final), was pipetted as 4× determinations into the holes of a 96-hole microtiter plate. Holes that contained the solvent without test compounds were used as reference values (1. Holes without carboanhydrase for correction of the non-enzymatic hydrolysis of the substrate, and 2. Holes with carboanhydrase for determining the activity of the non-inhibited enzyme).
188 μl of assay buffer (10 mmol of Tris/HCl, pH 7.4, 80 mmol of NaCl), with or without 3 units/hole on carboanhydrase I or II, was pipetted into the holes of the microtiter plate.

pIC50 [1]	pIC50 (CDK1/CycB)	pIC50 [2]	pIC50 [3]	pIC50 [4]	pIC50 [5]	pIC50 (CDK2/CycE)	pIC50 (Human Carboanhydrase-2)	melting point	Compound	pIC50 (MaTu-ADR)
7.22	7.89	7.22	6.47	7.00	7.30	–	–	–	C[C@@H](O)[C@@H](C)Oc1nc(Nc2ccc(S(C)(=N)=O)cc2)ncc1Br (mixture of isomers) [Example 1.4, (RS)-S-[4-({5-bromo-4-[(1R,2R)-2-hydroxy-1-methylpropoxy]pyrimidin-2-yl}amino)phenyl]-S-methyl sulfoximide]	7.10
6.52	7.10	5.92	7.40	5.82	6.40	> 8.00	< 5.00	–	C[C@H](CO)Nc1nc(Nc2ccc(S(C)(=N)=O)cc2)ncc1Br (mixture of isomers) [Example 1.0, (RS)-S-[4-({5-Bromo-4-[(R)-(2-hydroxy-1-methylethyl)amino]pyridimin-2-yl}amino)phenyl]-S-methyl sulfoximide]	5.80
5.82	6.96	6.52	–	5.77	6.52	–	< 5.00	–	CC(C)Nc1nc(Nc2ccc(S(C)(=N)=O)cc2)ncc1Br (racemic) [Example 2.0, (RS)-S-(4-{[5-bromo-4-(isopropylamino)pyrimidin-2-yl]amino}phenyl)-S-methyl sulfoximide]	6.40
6.30	7.31	–	6.77	–	–	7.80	–	175 to 180 °C	CCC(CO)Sc1nc(Nc2ccc(S(C)(=N)=O)cc2)ncc1Br (racemic) [Example 3.0, (RS)-S-[4-({5-bromo-4-[(RS)-(1-hydroxymethyl-propyl)sulfanyl]pyrimidin-2-yl}amino)phenyl]-S-methyl sulfoximide]	–
6.40	7.01	–	6.92	–	–	7.48	–	175 to 183 °C	CCC(C)Sc1nc(Nc2ccc(S(C)(=N)=O)cc2)ncc1Br (racemic) [Example 3.1, (RS)-S-[4-({5-bromo-4-[(RS)-(1-methyl-propyl)sulfanyl]pyrimidin-2-yl}amino)phenyl]-S-methyl sulfoximide]	–
7.00	7.72	> 7.00	–	> 7.00	–	–	–	201 to 202 °C	CC(Sc1nc(Nc2ccc(S(C)(=N)=O)cc2)ncc1Br)C(C)(C)O (racemic) [Example 3.7, (RS)-S-[4-({5-bromo-4-[(RS)-(2-hydroxy-1,2-dimethylpropyl)sulfanyl]pyrimidin-2-yl}amino)phenyl]-S-methyl sulfoximide]	> 7.00
6.40	–	6.52	< 6.00	6.52	–	7.57	–	218 °C (dec.)	CCC(Sc1nc(Nc2ccc(S(C)(=N)=O)cc2)ncc1Br)C(C)(C)O (racemic) [Example 3.8, (RS)-S-[4-({5-bromo-4-[(RS)-(1-ethyl-2-hydroxy-2-methylpropyl)sulfanyl]pyrimidin-2-yl}amino)phenyl]-S-methyl sulfoximide]	6.72
> 7.00	–	–	–	6.70	7.00	–	–	–	C[C@@H](Nc1nc(Nc2ccc(S(C)(=N)=O)cc2)ncc1Br)C(C)(C)O (single isomer, unassigned) [Example 1.3]	6.77
